# ChEMBL document CHEMBL5316381, “Discovery of [1,2,3]Triazolo[4,5-c]quinoline Derivatives as a New Class of Ataxia-Telangiectasia Mutated Kinase Inhibitors” (ACS Med Chem Lett, 2023)
# The source made the active and inactive calls. No cut-off for these calls is given here.
# Experiments:
# HCT-116 [1] = test: Induction of apoptosis in human HCT-116 cells assessed as viable cells at 10 nM measured after 72 hrs in presence of CPT-11 by Annexin V-FITC staining based flow cytometric analysis (reference value: 73.74%); assay type: functional; conditions: read-out: Activity
# SW-620 [2] = test: Induction of apoptosis in human SW620 cells assessed as early apoptotic cells at 30 nM measured after 72 hrs in presence of CPT-11 by Annexin V-FITC staining based flow cytometric analysis (reference value: 1.06%); assay type: functional
# [3] = Toxicity in BALB/c mouse xenografted with human SW620 cells assessed as heart damage at 5 mg/kg, ip administered once daily and measured after 23 days by H&E staining based microscopic analysis; assay type: organism-based, SW-620; conditions: in vivo, 552 h, time 23 day
# SW-620 [4] = test: Induction of apoptosis in human SW620 cells assessed as necrotic cells at 30 nM measured after 72 hrs in presence of CPT-11 by Annexin V-FITC staining based flow cytometric analysis (reference value: 5.83%); assay type: functional
# [5] = Toxicity in BALB/c mouse xenografted with human SW620 cells assessed as lung damage at 5 mg/kg, ip administered once daily and measured after 23 days by H&E staining based microscopic analysis; assay type: organism-based, SW-620; conditions: in vivo, 552 h, time 23 day
# SW-620 [6] = test: Radiosensitizing activity against human SW620 cells assessed as reduction in colony formation at 27 nM incubated after 14 days in the presence of 1.5 Gy irradiation by crystal violet staining based analysis; assay type: functional, cell-based; conditions: time 14.0 day
# SW-620 [7] = test: Induction of apoptosis in human SW620 cells assessed as necrotic cells at 100 nM measured after 72 hrs by Annexin V-FITC staining based flow cytometric analysis (reference value: 5.83%); assay type: functional
# HCT-116 [8] = test: Induction of apoptosis in human HCT-116 cells assessed as late apoptotic cells at 100 nM measured after 72 hrs by Annexin V-FITC staining based flow cytometric analysis (reference value: 19.80%); assay type: functional
# [9] = Toxicity in BALB/c mouse xenografted with human SW620 cells assessed as kidney damage at 5 mg/kg, ip administered once daily and measured after 23 days by H&E staining based microscopic analysis; assay type: organism-based, SW-620; conditions: in vivo, 552 h, time 23 day
# SW-620 [10] = test: Induction of apoptosis in human SW620 cells assessed as early apoptotic cells at 100 nM measured after 72 hrs in presence of CPT-11 by Annexin V-FITC staining based flow cytometric analysis (reference value: 1.06%); assay type: functional
# SW-620 [11] = test: Induction of apoptosis in human SW620 cells assessed as viable cells at 30 nM measured after 72 hrs in presence of CPT-11 by Annexin V-FITC staining based flow cytometric analysis (reference value: 87.36%); assay type: functional; conditions: read-out: Activity
# HCT-116 [12] = test: Induction of apoptosis in human HCT-116 cells assessed as late apoptotic cells at 30 nM measured after 72 hrs in presence of CPT-11 by Annexin V-FITC staining based flow cytometric analysis (reference value: 19.80%); assay type: functional
# SW-620 [13] = test: Induction of apoptosis in human SW620 cells assessed as viable cells at 100 nM measured after 72 hrs in presence of CPT-11 by Annexin V-FITC staining based flow cytometric analysis (reference value: 87.36%); assay type: functional; conditions: read-out: Activity
# SW-620 [14] = test: Radiosensitizing activity against human SW620 cells assessed as reduction in colony formation at 27 nM incubated after 14 days in the presence of 3 Gy irradiation by crystal violet staining based analysis; assay type: functional, cell-based; conditions: time 14.0 day
# HCT-116 [15] = test: Induction of apoptosis in human HCT-116 cells assessed as early apoptotic cells at 1 uM measured after 72 hrs by Annexin V-FITC staining based flow cytometric analysis (reference value: 4.06%); assay type: functional
# PI3K p110 beta/p85 alpha = PI3K p110 beta/p85 alpha (Homo sapiens, UniProt P42338); test: Inhibition of human PI3K p110 beta/p85 alpha using phosphatidylinositol-4, 5-bisphosphate as substrate incubated for 30 mins in the presence of Mg/ATP mix by HTRF-based analysis; assay type: protein-complex assay
# Sequence of PI3K p110 beta/p85 alpha (P27986 whole entry): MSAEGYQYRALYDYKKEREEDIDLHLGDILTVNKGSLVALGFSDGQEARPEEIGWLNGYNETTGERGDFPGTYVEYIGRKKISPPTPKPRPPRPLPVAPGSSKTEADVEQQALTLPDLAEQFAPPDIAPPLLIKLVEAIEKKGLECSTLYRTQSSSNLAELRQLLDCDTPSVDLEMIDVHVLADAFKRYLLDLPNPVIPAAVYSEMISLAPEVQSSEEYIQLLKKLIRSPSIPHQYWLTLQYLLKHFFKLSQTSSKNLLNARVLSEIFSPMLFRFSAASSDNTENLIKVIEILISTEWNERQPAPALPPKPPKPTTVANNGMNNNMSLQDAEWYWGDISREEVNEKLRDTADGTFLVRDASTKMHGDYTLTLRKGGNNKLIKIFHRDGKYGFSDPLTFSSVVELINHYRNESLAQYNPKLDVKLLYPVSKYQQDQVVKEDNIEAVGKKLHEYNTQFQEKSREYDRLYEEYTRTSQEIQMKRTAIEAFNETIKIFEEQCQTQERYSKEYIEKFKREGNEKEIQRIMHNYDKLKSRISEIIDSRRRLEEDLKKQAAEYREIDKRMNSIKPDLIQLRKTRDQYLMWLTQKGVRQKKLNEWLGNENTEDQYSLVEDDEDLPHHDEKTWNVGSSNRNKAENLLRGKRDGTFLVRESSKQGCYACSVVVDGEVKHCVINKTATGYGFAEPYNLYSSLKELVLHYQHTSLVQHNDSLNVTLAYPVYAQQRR
# Sequence of PI3K p110 beta/p85 alpha (P42338 whole entry): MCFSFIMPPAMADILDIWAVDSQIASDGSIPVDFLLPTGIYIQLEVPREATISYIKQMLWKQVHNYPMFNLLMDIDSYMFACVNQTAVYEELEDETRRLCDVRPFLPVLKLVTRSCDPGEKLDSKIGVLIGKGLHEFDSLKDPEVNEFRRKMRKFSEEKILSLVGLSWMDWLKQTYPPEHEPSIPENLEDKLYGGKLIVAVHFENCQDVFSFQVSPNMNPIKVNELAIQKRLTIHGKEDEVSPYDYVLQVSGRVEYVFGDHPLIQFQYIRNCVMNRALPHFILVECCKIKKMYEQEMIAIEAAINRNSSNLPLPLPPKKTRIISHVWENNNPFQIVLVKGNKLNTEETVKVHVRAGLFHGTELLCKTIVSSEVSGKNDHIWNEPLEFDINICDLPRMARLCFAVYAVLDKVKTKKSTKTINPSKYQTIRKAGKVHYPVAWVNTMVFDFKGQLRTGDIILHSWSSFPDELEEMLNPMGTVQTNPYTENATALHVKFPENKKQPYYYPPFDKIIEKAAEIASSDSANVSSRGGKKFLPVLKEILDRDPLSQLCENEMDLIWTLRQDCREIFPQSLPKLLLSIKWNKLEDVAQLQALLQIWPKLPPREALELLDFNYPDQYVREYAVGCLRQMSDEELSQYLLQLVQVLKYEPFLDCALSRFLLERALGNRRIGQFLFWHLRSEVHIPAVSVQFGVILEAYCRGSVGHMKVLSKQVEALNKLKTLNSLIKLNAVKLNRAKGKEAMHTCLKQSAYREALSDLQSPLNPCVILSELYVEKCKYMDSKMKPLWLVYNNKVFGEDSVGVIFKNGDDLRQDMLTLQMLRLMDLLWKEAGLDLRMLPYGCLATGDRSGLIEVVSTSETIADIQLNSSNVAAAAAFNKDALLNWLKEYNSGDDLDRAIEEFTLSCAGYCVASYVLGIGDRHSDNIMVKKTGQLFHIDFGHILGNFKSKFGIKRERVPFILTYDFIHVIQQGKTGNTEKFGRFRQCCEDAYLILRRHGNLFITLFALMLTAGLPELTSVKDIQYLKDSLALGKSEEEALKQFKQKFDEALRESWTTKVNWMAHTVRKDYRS
# [16] = molecular target: Serine/threonine-protein kinase Chk2 (Homo sapiens) (UniProt O96017); test: Inhibition of Chk2 phosphorylation in human SW620 cells with IR-induced DNA damage in the presence of 3 Gy irradiation by Western blot analysis; assay type: cell-based; conditions: dose 3-250 nM
# Sequence of Serine/threonine-protein kinase Chk2 (Homo sapiens) (O96017 whole entry): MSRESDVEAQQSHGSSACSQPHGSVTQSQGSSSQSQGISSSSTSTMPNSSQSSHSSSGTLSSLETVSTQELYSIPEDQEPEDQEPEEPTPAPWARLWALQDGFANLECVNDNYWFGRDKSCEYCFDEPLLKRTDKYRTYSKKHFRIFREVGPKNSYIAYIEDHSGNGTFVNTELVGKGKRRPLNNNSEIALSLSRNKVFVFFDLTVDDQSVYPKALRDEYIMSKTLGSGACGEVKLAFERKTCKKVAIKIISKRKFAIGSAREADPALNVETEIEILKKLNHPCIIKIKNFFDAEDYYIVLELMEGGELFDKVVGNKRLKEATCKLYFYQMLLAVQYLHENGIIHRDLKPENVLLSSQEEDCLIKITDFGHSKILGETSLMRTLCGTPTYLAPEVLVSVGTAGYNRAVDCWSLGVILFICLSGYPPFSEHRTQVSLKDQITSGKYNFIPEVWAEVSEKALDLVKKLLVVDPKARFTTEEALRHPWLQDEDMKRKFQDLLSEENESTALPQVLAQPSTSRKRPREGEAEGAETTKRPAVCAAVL
# [17] = molecular target: Serine/threonine-protein kinase ATR (Homo sapiens, UniProt Q13535); test: Inhibition of ATR (unknown origin) using GST-cMyc-p53 as substrate incubated for 30 mins in the presence of Mg/ATP mix by HTRF-based analysis
# Sequence of Serine/threonine-protein kinase ATR (Q13535 whole entry): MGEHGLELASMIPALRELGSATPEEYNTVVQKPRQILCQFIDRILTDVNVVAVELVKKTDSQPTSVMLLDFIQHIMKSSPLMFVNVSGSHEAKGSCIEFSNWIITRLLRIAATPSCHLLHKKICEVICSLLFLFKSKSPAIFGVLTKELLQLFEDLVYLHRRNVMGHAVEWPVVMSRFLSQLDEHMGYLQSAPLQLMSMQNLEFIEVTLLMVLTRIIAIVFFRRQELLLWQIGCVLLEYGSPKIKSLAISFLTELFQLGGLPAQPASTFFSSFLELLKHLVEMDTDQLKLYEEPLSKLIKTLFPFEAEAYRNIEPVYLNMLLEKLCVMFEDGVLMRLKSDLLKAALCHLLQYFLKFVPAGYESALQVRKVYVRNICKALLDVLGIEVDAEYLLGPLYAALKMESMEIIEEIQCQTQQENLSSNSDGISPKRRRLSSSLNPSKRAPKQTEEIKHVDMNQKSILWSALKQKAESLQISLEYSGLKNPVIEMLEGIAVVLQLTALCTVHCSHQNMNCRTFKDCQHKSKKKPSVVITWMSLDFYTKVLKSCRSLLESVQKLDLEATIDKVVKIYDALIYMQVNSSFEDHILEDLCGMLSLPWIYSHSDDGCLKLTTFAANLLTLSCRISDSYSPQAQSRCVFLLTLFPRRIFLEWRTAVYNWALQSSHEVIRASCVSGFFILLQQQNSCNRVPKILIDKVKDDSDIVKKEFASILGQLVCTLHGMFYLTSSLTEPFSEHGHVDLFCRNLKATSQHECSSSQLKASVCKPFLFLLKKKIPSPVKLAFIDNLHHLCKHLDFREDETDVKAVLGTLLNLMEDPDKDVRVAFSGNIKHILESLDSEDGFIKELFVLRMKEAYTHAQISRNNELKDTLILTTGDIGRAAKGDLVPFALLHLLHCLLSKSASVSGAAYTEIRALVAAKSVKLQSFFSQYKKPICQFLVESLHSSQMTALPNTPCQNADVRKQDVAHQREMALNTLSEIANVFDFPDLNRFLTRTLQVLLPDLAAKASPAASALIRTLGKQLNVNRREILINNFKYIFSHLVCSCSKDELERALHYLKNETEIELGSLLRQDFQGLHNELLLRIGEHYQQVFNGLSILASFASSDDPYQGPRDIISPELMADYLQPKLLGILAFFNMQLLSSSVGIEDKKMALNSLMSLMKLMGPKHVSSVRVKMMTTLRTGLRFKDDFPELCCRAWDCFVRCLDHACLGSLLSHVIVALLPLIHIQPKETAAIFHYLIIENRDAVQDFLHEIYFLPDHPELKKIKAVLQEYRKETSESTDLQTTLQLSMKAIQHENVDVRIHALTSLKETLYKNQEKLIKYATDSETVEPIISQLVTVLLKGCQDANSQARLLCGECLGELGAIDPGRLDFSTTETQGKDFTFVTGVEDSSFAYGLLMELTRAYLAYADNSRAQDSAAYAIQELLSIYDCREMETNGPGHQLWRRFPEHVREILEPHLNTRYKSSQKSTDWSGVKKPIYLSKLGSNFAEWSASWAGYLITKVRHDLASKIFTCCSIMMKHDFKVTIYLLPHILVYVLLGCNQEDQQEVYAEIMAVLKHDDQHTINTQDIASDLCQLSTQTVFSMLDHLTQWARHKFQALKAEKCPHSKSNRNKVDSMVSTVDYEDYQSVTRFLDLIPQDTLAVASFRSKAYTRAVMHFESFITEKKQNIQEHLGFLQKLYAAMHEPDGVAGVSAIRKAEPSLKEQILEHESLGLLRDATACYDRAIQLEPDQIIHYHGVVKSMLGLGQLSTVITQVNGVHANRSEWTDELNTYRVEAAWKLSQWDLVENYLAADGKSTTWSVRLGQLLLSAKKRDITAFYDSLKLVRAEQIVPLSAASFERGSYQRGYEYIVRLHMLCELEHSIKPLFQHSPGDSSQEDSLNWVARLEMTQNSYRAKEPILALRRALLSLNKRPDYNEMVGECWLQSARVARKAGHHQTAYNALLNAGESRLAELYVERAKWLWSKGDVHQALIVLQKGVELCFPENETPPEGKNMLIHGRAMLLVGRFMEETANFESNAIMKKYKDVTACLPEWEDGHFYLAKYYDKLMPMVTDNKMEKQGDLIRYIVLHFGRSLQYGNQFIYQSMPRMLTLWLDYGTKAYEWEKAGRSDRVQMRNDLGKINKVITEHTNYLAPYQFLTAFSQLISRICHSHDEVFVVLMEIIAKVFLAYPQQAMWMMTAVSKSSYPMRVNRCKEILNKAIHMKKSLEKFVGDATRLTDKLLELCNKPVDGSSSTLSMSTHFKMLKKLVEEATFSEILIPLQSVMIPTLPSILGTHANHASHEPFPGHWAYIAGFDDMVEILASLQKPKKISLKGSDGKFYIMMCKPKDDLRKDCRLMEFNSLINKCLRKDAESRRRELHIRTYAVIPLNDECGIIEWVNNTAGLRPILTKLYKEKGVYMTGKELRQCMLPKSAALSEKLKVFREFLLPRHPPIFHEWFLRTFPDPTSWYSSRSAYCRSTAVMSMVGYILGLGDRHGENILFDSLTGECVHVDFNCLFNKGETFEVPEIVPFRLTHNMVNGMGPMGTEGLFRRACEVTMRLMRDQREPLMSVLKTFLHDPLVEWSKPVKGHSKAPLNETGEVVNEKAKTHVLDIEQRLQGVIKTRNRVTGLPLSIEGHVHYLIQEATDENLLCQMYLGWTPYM
# HCT-116 [18] = test: Cell cycle arrest in human HCT-116 cells assessed as accumulation of cells at G2/M phase incubated for 24 hrs in presence of CPT-11 by PI staining based flow cytometric analysis; assay type: functional; conditions: dose 10-100 nM
# HCT-116 [19] = test: Induction of apoptosis in human HCT-116 cells assessed as late apoptotic cells at 1 uM measured after 72 hrs by Annexin V-FITC staining based flow cytometric analysis (reference value: 19.80%); assay type: functional
# HCT-116 [20] = test: Induction of apoptosis in human HCT-116 cells assessed as early apoptotic cells at 10 nM measured after 72 hrs in presence of CPT-11 by Annexin V-FITC staining based flow cytometric analysis (reference value: 4.06%); assay type: functional
# SW-620 [21] = test: Antitumor activity against human SW620 cells xenografted in BALB/C mouse assessed as reduction in tumor volume at 5 mg/kg, ip administered once a week and measured after 23 days in the presence of CPT-11; assay type: functional, organism-based; conditions: time 23.0 day
# SW-620 [22] = test: Antiproliferative activity against human SW620 cells assessed as reduction in colony formation at 9 nM measured after 14 days by crystal violet staining based microscopic analysis; assay type: functional, cell-based; conditions: time 14.0 day
# SW-620 [23] = test: Anticancer activity against human SW620 cells assessed as reduction in cell viability by measuring fold change in CPT-11 IC50 at 100 nM incubated for 5 days by MTT assay relative irinotecan alone; assay type: functional; conditions: time 5 day
# SW-620 [24] = test: Induction of apoptosis in human SW620 cells assessed as late apoptotic cells at 100 nM measured after 72 hrs by Annexin V-FITC staining based flow cytometric analysis (reference value: 5.75%); assay type: functional
# SW-620 [25] = test: In vivo inhibition of ATM in BALB/c mouse model xenografted with human SW620 cells assessed as inhibition of Chk2 phosphorylation at 5 mg/kg, ip administered once daily and measured after 23 days in the presence of CPT-11 by Western blot analysis; assay type: functional, organism-based; conditions: time 23.0 day
# [26] = molecular target: Serine/threonine-protein kinase mTOR (Homo sapiens, UniProt P42345); test: Inhibition of mTOR (unknown origin) incubated for 40 mins in the presence of Mn/ATP mix by scintillation counting analysis
# SW-620 [27] = test: Radiosensitizing activity against human SW620 cells assessed as reduction in colony formation at 9 nM incubated after 14 days in the presence of 3 Gy irradiation by crystal violet staining based analysis; assay type: functional, cell-based; conditions: time 14.0 day
# HCT-116 [28] = test: Induction of apoptosis in human HCT-116 cells assessed as viable cells at 100 nM measured after 72 hrs in presence of CPT-11 by Annexin V-FITC staining based flow cytometric analysis (reference value: 73.74%); assay type: functional; conditions: read-out: Activity
# SW-620 [29] = test: Induction of apoptosis in human SW620 cells assessed as early apoptotic cells at 100 nM measured after 72 hrs by Annexin V-FITC staining based flow cytometric analysis (reference value: 1.06%); assay type: functional
smiles,measurement,setting,value
C[C@H](c1ccccc1)n1nnc2cnc3ccc(-c4ccc(OCCCN(C)C)nc4)cc3c21,viability at 0.01 µM,HCT-116 [1],55.8%
same,Activity,SW-620 [2],6.95%
same,Activity,[3],Non-Toxic
same,Activity,SW-620 [4],1.83%
same,Activity,[5],Non-Toxic
same,Activity,SW-620 [6],Active
same,Activity,SW-620 [7],6.3%
same,Activity,HCT-116 [8],14.21%
same,Activity,[9],Non-Toxic
same,Activity,SW-620 [10],7.18%
same,viability at 0.03 µM,SW-620 [11],47.2%
same,Activity,HCT-116 [12],63.63%
same,viability at 0.1 µM,SW-620 [13],30.5%
same,Activity,SW-620 [14],Active
same,Activity,HCT-116 [15],1.34%
same,IC50,PI3K p110 beta/p85 alpha,1.85 µM
same,inhibition,[16],Dose-Dependent Effect
same,IC50,[17],> 10 µM
same,Activity,HCT-116 [18],Dose-Dependent Effect
same,Activity,HCT-116 [19],31.02%
same,Activity,HCT-116 [20],1.1%
same,Activity,SW-620 [21],Active
same,Activity,SW-620 [22],inactive
same,fold change (FC),SW-620 [23],4.4
same,Activity,SW-620 [24],11.57%
same,inhibition,SW-620 [25],Active
same,IC50,[26],0.216 µM
same,Activity,SW-620 [27],Active
same,viability at 0.1 µM,HCT-116 [28],22%
same,Activity,SW-620 [29],1.88%
